Two compounds from paper PMC5017749, “Preclinical Metabolism, Pharmacokinetics and In Vivo Analysis of New Blood-Brain-Barrier Penetrant Fingolimod Analogues: FTY720-C2 and FTY720-Mitoxy” (PLoS ONE, 2016) can be followed below.

A short description of data set [1]: Metabolite profiling and identification in human hepatocytes. Further details: key to Source (peak identified in human hepatocytes): R = Rat; hr = Human; lowercase letter indicates low abundance; h: lowercase letter indicates low abundance. Conditions: for phosphorylated metabolites / parent peak after 2 hr incubation: human hepatocytes; for parent peak after 2 hr incubation: 1 μM. The data set is classed as in vitro ADME. The procedure: Cryopreserved hepatocytes were grown in culture and incubations were performed to generate samples to measure the formation of FTY720-C2 and FTY720-Mitoxy metabolites. Incubations of 1 mL medium containing 1 million cells and 1 μM of FTY720-C2 and FTY720-Mitoxy were conducted at 37° C in a 5% CO2 incubator for 0, 1 and 2 hr, with gentle shaking. Positive control incubations used a cocktail solution containing 10 μM testosterone and 10 μM diclofenac performed for 0, 1 and 2 hr, under similar conditions to confirm the metabolic activity of the hepatocytes. The reactions were terminated by adding 2 mL acetonitrile containing 0.02% formic acid, and thoroughly mixing with gentle vortexing. Samples were transferred into 6 mL vials and stored in the freezer (-70°C) overnight for protein precipitation. Following overnight precipitations, samples were centrifuged at 3,000 rpm for 10 min to pellet proteins. Supernatants were transferred into clean 6 mL vials and evaporated to dryness using a TurboVap concentrator system. Samples were reconstituted using 600 μL 20% acetonitrile in water, briefly vortexed to resuspend, then aliquoted for LC-MS/MS analysis. Controls incubations also included “No drug control” and “no cell control” samples treated in a similar manner as test article samples.
Metabolite profiling and identification experiments were conducted by LC-MS/MS, composed of an HPLC system consisting of an Agilent Technologies 1200 Series Model G1322A Degasser, Agilent Technologies 1200 Series Model G1312A Binary Pump, Shimadzu HTc autosampler, and Valco Model E60 Flow Diversion Valve, and coupled to an API 4000 mass spectrometer. Separations were accomplished on a Gemini C18 column (150 × 2.0 mm, 5-μm particles; Phenomenex Inc., Torrance, CA), preceded by a SecurityGuard C18 guard column (4.0 × 2.0 mm; Phenomenex Inc.). A two-component mobile phase, consisted of a linear gradient of water containing 0.5% formic acid (v/v) and methanol:acetonitrile (1:1, v/v) containing 0.5% formic acid (v/v), was pumped at 0.3 mL/min. The first 4 min of flow was diverted away from the mass spectrometer. Analysis of the positive control samples was conducted with an HPLC system consisting of two Shimadzu LC-10ATvp pumps and a LEAP Pal autosampler. Separations were accomplished on a Luna C8(2) column (50 × 2.0 mm, 3-μm particles; Phenomenex Inc., Torrance, CA), preceded by a SecurityGuard C18 column (4.0 × 2.0 mm; Phenomenex Inc.). Separation was accomplished with a gradient of water containing 0.2% formic acid and 0.012% NH4OH (v/v) versus acetonitrile at an initial rate of 0.7 mL/min. An API 4000 QTrap mass spectrometer (AB Sciex, Foster City, CA) was used for analysis of positive control samples. Each mass spectrometer used was equipped with an electrospray ionization source and operated in the positive ionization mode. Metabolite identification experiments were performed by recording full scan mass spectral data (Q1MS) for all samples, and selected samples were analyzed to obtain product ion spectra (MS/MS) of test article metabolites identified in the full scan mass spectral data.

A short description of data set [2]: Metabolic stability (intrinsic clearance) in rat liver microsomes. The class given is in vitro ADME, rat (Sprague-Dawley). To be noted: for microsomal CLint at 1 μM: Sprague-Dawley, pH 7.4, 0.1 mg/mL protein, mean of two determinations; for microsomal CLint at 1 μM / intrinsic clearance interpreted in words / percent of the remaining compound: rat liver microsomes; for percent of the remaining compound: after 60 minute incubation; for Clint in rat liver microsomes relative to human liver microsomes: rat vs human liver microsomes. As to the method: (§1) Liver microsomal incubations contained 0.1mg/mL microsomal proteins and 1 μM of FTY720-C2 or FTY720-Mitoxy in 100 mM potassium phosphate buffer (pH 7.4) ± an NADPH regenerating system (3.5 mM glucose 6-phosphate, 1.3 mM NADP^+, and 0.4 units/mL glucose-6-phosphate dehydrogenase). Following incubations, reactions were terminated for analysis after 0, 10, 20, 30, and 60 min by the addition of acetonitrile containing C17 sphingosine (300 ng/mL) as the internal standard. Samples were vigorously mixed and centrifuged at 3,400 rpm for 10 min to pellet precipitated proteins. An aliquot of each supernatant was used for LC/MS analysis, for determination of the remaining FTY720-C2 and FTY720-Mitoxy. Similar incubations were performed using a cocktail solution containing 0.2 μM midazolam and 1 μM diclofenac to determine the metabolic activity of the microsomes as an additional control.
(§2) Samples resulting from liver microsomal incubations were analyzed by LC-MS/MS. Aliquots of the supernatants were injected onto an X-Bridge C18 column (2.1 × 50 mm, 3.5-μm particles) (Waters, Milford, MA), preceded by a SecurityGuard C18 guard column (4.0 × 2.0 mm; Phenomenex Inc.). Separations were accomplished with a gradient of 0.1% acetic acid in water (v/v) versus 0.1% acetic acid in acetonitrile: methanol (75:25, v/v) at a rate of 0.8 mL/min. The eluents were further applied into an equipped API 4000 QTrap mass spectrometer (AB Sciex, Foster City, CA) with electrospray ionization (ESI) interface by two coupled LC-10 AT pumps. Peak area ratios of FTY720-C2 or FTY720-Mitoxy against the C17 sphingosine internal standard were used to determine the amount of parent remaining compared to that at 0 min. The percent of FTY720-C2 or FTY720-Mitoxy remaining was calculated by dividing the peak area ratio obtained at each time point by that obtained at 0 min. The in vitro intrinsic clearance (CLint) was calculated by linear regression of the log percent of compound remaining versus time plots using Microsoft Excel, two independent experiments (n = 2) were performed for each compound and species. Then, the mean and standard deviation (SD), of two values for each condition, were calculated using Microsoft Excel with the “AVERAGE” and “STDEV” functions, respectively.
For orientation: Microsomes from liver hold many membrane-bound enzymes, among them those of drug oxidation.

The nature of data set [3]: Metabolic stability (intrinsic clearance) in monkey liver microsomes. To be noted: for percent of the remaining compound: after 60 minute incubation. The class given is in vitro ADME, monkey (Cynomolgus). The procedure:
as §1, §2

As for `CCCCCCCCc1ccc(CCC(CO)(CO)NC(=O)CC[P+](c2ccccc2)(c2ccccc2)c2ccccc2)cc1` [FTY720-Mitoxy, N-(1-hydroxy-2-(hydroxymethyl)-4-(4-octylphenyl)butan-2-yl)-3’-triphenylphosphoniumpropanamide], the “Source (peak identified in human hepatocytes)” value in data set [1] (FTY720-Mitoxy incubation, Table 5) is on record as “H”. Also, in data set [1], the phosphorylated metabolites entry is recorded as “never detected” and the “parent peak after 2 hr incubation” value is recorded as “most FTY720-Mitoxy was still unchanged”. Further, in data set [2], the microsomal CLint at 1 μM turned out to be 7.8 ± 1.98 µL/min/mg, the “intrinsic clearance interpreted in words” value is given as “low”, the “percent of the remaining compound” value is 65.5 ± 4.9% and the “Clint in rat liver microsomes relative to human liver microsomes” value is recorded as “around half”. For the same compound, in data set [3] (monkey liver microsomes), the “intrinsic clearance interpreted in words” value is listed as “high” and the “percent of the remaining compound” value stood at 1.4 ± 0.3%. Further, the “Clint (intrinsic clearance)” value in data set [3] (monkey liver microsomes, 0.1 mg/mL protein, 1 μM, mean of two determinations) is 135.3 ± 10.61 µL/min/mg. Further, in data set [3] (monkey, liver microsomes, pH 7.4, monkey liver microsomes, 0.1 mg/mL protein, 1 μM, mean of two determinations), the microsomal CLint at 1 μM was 135 µL/min/mg.
Turning to `CCCCCCCCc1ccc(CCC(CO)(CO)NC(C)=O)cc1` [FTY720-C2, N-(1-hydroxy-2-(hydroxymethyl)-4-(4-octylphenyl)butan-2-yl)acetamide], in data set [1] (FTY720-C2 incubation, Table 4), the “Source (peak identified in human hepatocytes)” value is listed as “H”. Besides, in data set [1], the phosphorylated metabolites entry is listed as “never detected” and the “parent peak after 2 hr incubation” value is “more gradual”. Also, in data set [2], the microsomal CLint at 1 μM worked out at 79.5 ± 1.41 µL/min/mg, the “intrinsic clearance interpreted in words” value is given as “high”, the “percent of the remaining compound” value was determined as 1.0 ± 0% and the “Clint in rat liver microsomes relative to human liver microsomes” value is listed as ~ 4 fold. Moreover, in data set [3] (monkey liver microsomes), the “intrinsic clearance interpreted in words” value is on record as “moderate” and the “percent of the remaining compound” value is 30.0 ± 0.3%. In addition, the intrinsic clearance (microsomal CLint) at 1 μM in data set [3] (pH 7.4, monkey liver microsomes, 0.1 mg/mL protein, 1 μM, mean of two determinations) turned out to be 20.2 µL/min/mg.

Usually microsomal CLint stands for the capacity of the preparation to metabolise the compound, expressed as a volume cleared per time.
